ChEMBL document CHEMBL1141504, “An efficient route into synthetically challenging bridged achiral 1,2,4,5-tetraoxanes with antimalarial activity” (Bioorg Med Chem Lett, 2008)

What was measured:
[1] = Partition coefficient, log P of the compound; format: physicochemical; conditions: octanol/water
Plasmodium falciparum = assay: Antimalarial activity against Plasmodium falciparum 3D7; format: functional, organism-based

Structure (SMILES)	logP [1]	IC50 (Plasmodium falciparum)
FC(F)(F)c1ccc(CC2CCC3(CC2)OOCCCOO3)cc1	4.79	52.4 nM
CO[C@H]1O[C@@H]2O[C@@]3(C)CC[C@H]4[C@H](C)CC[C@@H]([C@H]1C)[C@@]24OO3 [ARTEMETHER]		3.2 nM
C=C1COOC2(CCC(Cc3ccc(F)cc3)CC2)OOC1	4.2	43.4 nM
CCOC(=O)CC1CCC2(CC1)OOCCCOO2	2.2	118 nM
c1ccc(CC2CCC3(CC2)OOCCCOO3)cc1	3.93	51.9 nM
C=C1COOC2(CCC(Cc3ccc(C(=O)OC)cc3)CC2)OOC1	4.05	116 nM
COC(=O)c1ccc(CC2CCC3(CC2)OOCCCOO3)cc1	3.75	93.5 nM
C=C1COOC2(CCC(Cc3ccc(C(F)(F)F)cc3)CC2)OOC1	4.95	42.8 nM
O=C(CC1CCC2(CC1)OOCCCOO2)N1CCOCC1	1.16	689 nM
Fc1ccc(CC2CCC3(CC2)OOCCCOO3)cc1	4.01	68.2 nM
CS(=O)(=O)c1ccc(CC2CCC3(CC2)OOCCCOO3)cc1	2.65	
N#Cc1ccc(CC2CCC3(CC2)OOCCCOO3)cc1	3.46	99.7 nM
C[C@@H]1CC[C@H]2[C@@H](C)C(=O)O[C@@H]3O[C@@]4(C)CC[C@@H]1[C@]32OO4 [ARTEMISININ]		9.2 nM
